A short description of data set [1]: Caco-2 permeability, Method B7. The format is in vitro ADME, human. The settings on record: human; for Papp A→B at 60 min, 10 μM / Papp B→A at 60 min, 10 μM: Caco-2, 10 μM, without P-gp inhibitor; for efflux ratio at 60 min, 10 μM: Caco-2, without P-gp inhibitor, read-out: Efflux ratio Papp B2A/Papp A2B. The source says: B7. Determination of Caco-2 Permeability
The Caco-2 cell line, derived from a human colorectal carcinoma, has become an established in vitro model for the prediction of drug absorption across the human intestine. (Sun, D.; Yu, L. X.; Hussain, M. A.; Wall, D. A.; Smith, R. L.; Amidon, G. L. Curr. Opin. Drug Discov. Devel. 2004, 7, 75-85; Bergstrom, C. A. Basic Clin. Pharmacol. Toxicol. 2005, 96, 156-61; Balimane, P. V.; Han, Y. H.; Chong, S. AAPS J. 2006, 8, E1-13; Shah, P.; Jogani, V.; Bagchi, T.; Misra, A. Biotechnol. Prog. 2006, 22, 186-198.) When cultured on semi-permeable membranes, Caco-2 cells differentiate into a highly functionalized epithelial barrier with remarkable morphological and biochemical similarity to the small intestinal columnar epithelium. Fully differentiated cell monolayers can be used to assess the membrane transport properties of novel compounds.
Assays to determine the permeability of compounds of the invention utilizing Caco-2 cells are commercially available, for example NoAb BioDiscoveries (Mississaugua, ON, Canada) and Absorption Systems (Exton, Pa., USA).
Permeability across the Caco-2 cell layer was determined by growing the cells on a membrane placed between two (donor and acceptor) chambers. Drug candidates are typically added to the apical (A) side of the cell layer and their appearance in the basolateral (B) side is measured over incubation time. Permeability in this direction represents intestinal absorption. Permeability may also be determined from the basolateral to the apical side of the Caco-2 cell. […]
Permeability (10 μM) for compounds of the invention in the apical to basolateral and basolateral to apical direction were tested in duplicate. Samples will be collected from the donor and acceptor chambers at the beginning (0 min) and following 60 min of incubation at 37° C. and stored frozen at −70° C. until bioanalysis. Samples for each test compound generated from the Caco-2 permeability assay were further analyzed by LC-MS-MS. The permeability of [^3H]-mannitol and [^3H]-propranolol were determined in parallel as controls.
The permeability coefficient (Papp) of each compound and radiolabeled standard was determined using the following equation: […]
where dQ/dT represents the permeability rate, Ci denotes the initial concentration in the donor compartment, and A represents the surface area of the filter. Ci is determined from the mean concentration of duplicate samples taken prior to addition to the donor compartment. Permeability rates were calculated by plotting the cumulative amount of compound measured in the acceptor compartment over time and determining the slope of the line by linear regression analysis. The duplicate and mean apical to basolateral and basolateral to apical Papp's were reported for each compound and standard. […]
On the technique in general: Caco-2 monolayers are a common model of the intestinal barrier.

In data set [2] the target is CYP3A4 (Homo sapiens, UniProt P08684). Briefly: Cytochrome P450 inhibition, Method B6 (two substrates). The settings on record: read-out: IC50 CYP 3A4.
Data set [3] has as its target T1, hERG channel (Homo sapiens, UniProt Q12809).
T1 construct: expressed in transfected cells; host or cells: HEK293
Briefly: hERG channel inhibition (whole cell IKr currents, HEK293), Method B16. The format is cell-based. The settings on record: in comparison to vehicle (0.1% DMSO) controls, up to 100 μM. An excerpt:
B16. hERG Channel Inhibition
Direct interactions of compounds with the hERG channel account for the majority of known cases of cardiotoxicity. […]
For orientation: hERG is a cardiac potassium channel; its block is linked to QT prolongation.

Setting [4] is: Table 4b, midazolam used as substrate.
The mark [5] stands for this setting: Table 4a, nifedipine used as substrate.

Like-named read-outs stand apart in the source and are kept apart here.

By Papp A→B is commonly meant how fast a substance crosses the layer from the apical side. Higher therefore signals fast passage. Broadly, the Papp B→A is the apparent permeability from the basolateral to the apical side of a cell layer. The IC50 is the concentration that inhibits the measured activity by half.

CYP3A4, sequence (P08684 whole entry): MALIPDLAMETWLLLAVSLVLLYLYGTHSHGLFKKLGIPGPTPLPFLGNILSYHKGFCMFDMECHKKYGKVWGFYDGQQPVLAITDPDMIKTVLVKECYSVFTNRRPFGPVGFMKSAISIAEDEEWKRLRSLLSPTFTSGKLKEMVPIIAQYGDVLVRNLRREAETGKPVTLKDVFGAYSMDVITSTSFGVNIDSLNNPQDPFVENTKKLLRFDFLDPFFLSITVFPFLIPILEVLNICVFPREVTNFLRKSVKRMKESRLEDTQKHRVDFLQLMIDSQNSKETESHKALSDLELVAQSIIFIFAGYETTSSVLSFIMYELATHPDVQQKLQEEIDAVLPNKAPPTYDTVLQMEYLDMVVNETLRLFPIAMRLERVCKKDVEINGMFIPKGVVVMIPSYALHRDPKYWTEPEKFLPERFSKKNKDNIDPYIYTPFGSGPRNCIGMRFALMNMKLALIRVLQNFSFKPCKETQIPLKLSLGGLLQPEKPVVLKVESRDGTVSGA
T1 sequence (Q12809 whole entry): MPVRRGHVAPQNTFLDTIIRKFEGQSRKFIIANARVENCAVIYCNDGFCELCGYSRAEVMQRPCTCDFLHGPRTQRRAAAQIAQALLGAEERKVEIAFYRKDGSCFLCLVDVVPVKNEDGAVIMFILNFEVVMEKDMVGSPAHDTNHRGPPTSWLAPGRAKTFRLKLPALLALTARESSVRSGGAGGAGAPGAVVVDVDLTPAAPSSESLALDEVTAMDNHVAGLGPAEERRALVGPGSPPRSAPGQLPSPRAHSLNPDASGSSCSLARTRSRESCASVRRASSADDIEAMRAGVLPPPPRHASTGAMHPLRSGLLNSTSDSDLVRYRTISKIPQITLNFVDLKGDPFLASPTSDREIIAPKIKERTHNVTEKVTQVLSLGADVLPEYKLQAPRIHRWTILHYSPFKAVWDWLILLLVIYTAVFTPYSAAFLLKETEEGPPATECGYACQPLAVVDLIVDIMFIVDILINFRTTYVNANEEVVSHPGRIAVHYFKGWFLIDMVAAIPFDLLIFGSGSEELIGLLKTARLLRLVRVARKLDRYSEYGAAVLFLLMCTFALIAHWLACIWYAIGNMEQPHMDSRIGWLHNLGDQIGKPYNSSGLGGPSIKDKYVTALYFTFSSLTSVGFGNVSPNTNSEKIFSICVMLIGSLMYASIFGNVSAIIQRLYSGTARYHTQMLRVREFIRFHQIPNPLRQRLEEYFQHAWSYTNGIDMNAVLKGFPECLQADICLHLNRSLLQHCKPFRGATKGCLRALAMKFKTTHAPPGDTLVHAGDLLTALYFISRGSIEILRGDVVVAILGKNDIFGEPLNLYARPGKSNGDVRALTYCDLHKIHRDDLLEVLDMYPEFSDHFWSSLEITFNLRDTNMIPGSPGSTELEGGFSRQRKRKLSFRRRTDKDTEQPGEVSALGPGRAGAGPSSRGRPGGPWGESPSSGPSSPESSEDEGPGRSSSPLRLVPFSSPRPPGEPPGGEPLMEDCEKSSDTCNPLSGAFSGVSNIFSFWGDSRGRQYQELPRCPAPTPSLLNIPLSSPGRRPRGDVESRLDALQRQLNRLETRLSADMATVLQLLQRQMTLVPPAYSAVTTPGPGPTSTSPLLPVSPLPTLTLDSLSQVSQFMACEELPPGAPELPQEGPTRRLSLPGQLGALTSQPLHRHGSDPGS

`CC(C)[C@@H]1NCCOc2ccccc2C[C@H](O)[C@@H](C)NC(=O)[C@@H](Cc2cccc(F)c2)NC(=O)[C@H](C(C)O)N(C)C1=O` (stereo partly shown) [Compound 1503]: in data set [1], the Papp A→B at 60 min, 10 μM was found to be 0.11 ×10⁻⁶ cm/s; the Papp B→A at 60 min, 10 μM came out at 12 ×10⁻⁶ cm/s; the efflux ratio at 60 min, 10 μM came out at 109.
Take `CC[C@@H]1CCc2ccc(F)cc2OCCN[C@@H](C(C)C)C(=O)N(C)[C@@H](C(C)O)C(=O)N[C@H](Cc2c[nH]c3ccccc23)C(=O)N1` (stereo partly shown) [Compound 1505]: in data set [1], the Papp A→B at 60 min, 10 μM turned out to be 0.091 ×10⁻⁶ cm/s; the Papp B→A at 60 min, 10 μM turned out to be 26.7 ×10⁻⁶ cm/s; the efflux ratio at 60 min, 10 μM is 299.
For `CC(C)[C@@H]1NCCOc2ccccc2C#C[C@@H](C)NC(=O)[C@@H](Cc2ccccc2)NC(=O)[C@H](C(C)O)N(C)C1=O` (stereo partly shown) [Compound 1688], in data set [1], the Papp A→B at 60 min, 10 μM was determined as 0.131 ×10⁻⁶ cm/s; the basolateral-to-apical permeability (Papp B→A) at 60 min, 10 μM stood at 41.8 ×10⁻⁶ cm/s; the efflux ratio at 60 min, 10 μM is 318.
Regarding `CC(C)C1NCCOc2cc(F)ccc2C#CCNC(=O)C(Cc2c[nH]c3ccccc23)NC(=O)C(C(C)O)N(C)C1=O` (stereo not shown) [Compound 1693], the IC50 in data set [2] (setting [4]) turned out to be 2.2 µM.
With `CC(C)[C@@H]1NCCOc2ccccc2C#CCNC(=O)[C@@H](Cc2ccccc2)NC(=O)[C@H](C(C)O)N(C)C1=O` (stereo partly shown) [Compound 1712], the “effect on hERG channel function” value in data set [3] is recorded as “no significant effect”.
For `CC(O)[C@H]1C(=O)N[C@H](Cc2c[nH]c3ccccc23)C(=O)N[C@H](C)C#Cc2ccc(F)cc2O[C@H](C)CN[C@@H](C2(C)CC2)C(=O)N1C` (stereo partly shown) [Compound 1720], the IC50 in data set [2] (setting [4]) stood at 1.6 µM.
`CC(C)[C@@H]1NCC2CCc3cccc(c3O2)CCCNC(=O)[C@@H](Cc2ccccc2)NC(=O)[C@H](C(C)O)N(C)C1=O` (stereo partly shown) [Compound 1777]: in data set [2] (setting [5]), the IC50 amounted to 6 µM.
For `CC(O)[C@H]1C(=O)N[C@H](Cc2ccccc2)C(=O)NCCCc2cccc3c2OC(CC3)CN[C@@H](C2CC2)C(=O)N1C` (stereo partly shown) [Compound 1778], in data set [1], the Papp A→B at 60 min, 10 μM is 0.193 ×10⁻⁶ cm/s; the Papp B→A at 60 min, 10 μM came out at 32.7 ×10⁻⁶ cm/s; the efflux ratio at 60 min, 10 μM is 169.
`CC[C@@H]1NCC2CCc3cccc(c3O2)CCCNC(=O)[C@@H](Cc2ccccc2)NC(=O)[C@H](C(C)O)N(C)C1=O` (stereo partly shown) [Compound 1780]: in data set [1], the Papp A→B at 60 min, 10 μM was determined as 0.099 ×10⁻⁶ cm/s; the Papp B→A at 60 min, 10 μM is 29.5 ×10⁻⁶ cm/s; the efflux ratio at 60 min, 10 μM came out at 297.
Consider `CC(C)[C@@H]1NCCOc2ccccc2C2CCC(C2)NC(=O)[C@@H](Cc2c[nH]c3ccccc23)NC(=O)[C@H](C(C)O)N(C)C1=O` (stereo partly shown) [Compound 1843], for which the IC50 in data set [2] (setting [5]) stood at 6.5 µM.
For `CC(C)[C@@H]1NCCOc2ccccc2C2CCC(C2)NC(=O)[C@@H](Cc2ccccc2)NC(=O)[C@H](C(C)O)N(C)C1=O` (stereo partly shown) [Compound 1848], in data set [1], the Papp A→B at 60 min, 10 μM was 0.266 ×10⁻⁶ cm/s; the Papp B→A at 60 min, 10 μM turned out to be 64.2 ×10⁻⁶ cm/s; the efflux ratio at 60 min, 10 μM was 241. Moreover, in data set [3], the “effect on hERG channel function” value is listed as “no significant effect”.
Take `CC(O)[C@H]1C(=O)N[C@H](Cc2ccccc2)C(=O)NCC#Cc2c(F)cccc2OCCN[C@@H](C2(C)CC2)C(=O)N1C` (stereo partly shown) [Compound 1876]: in data set [1], the Papp A→B at 60 min, 10 μM stood at 0.097 ×10⁻⁶ cm/s; the Papp B→A at 60 min, 10 μM amounted to 28 ×10⁻⁶ cm/s; the efflux ratio at 60 min, 10 μM is 288.
The like results for `CC(O)[C@H]1C(=O)N[C@H](Cc2ccccc2)C(=O)NCC#Cc2ccccc2OCCN[C@@H](C2(C)CC2)C(=O)N1C` (stereo partly shown) [Compound 1878] were, in that order, 0.144 ×10⁻⁶ cm/s, 21.7 ×10⁻⁶ cm/s and 151.
With `CC(C)[C@@H]1NCCOc2ccccc2C2CCC(C2)NC(=O)[C@@H](Cc2ccc(F)cc2)NC(=O)[C@H](C(C)O)N(C)C1=O` (stereo partly shown) [Compound 1903], in data set [1], the Papp A→B at 60 min, 10 μM amounted to 0.291 ×10⁻⁶ cm/s; the Papp B→A at 60 min, 10 μM stood at 58.9 ×10⁻⁶ cm/s; the efflux ratio at 60 min, 10 μM turned out to be 203.
In the case of `CC(O)[C@H]1C(=O)N[C@H](Cc2ccccc2)C(=O)NCC#Cc2ccc(F)cc2OCCN[C@@H](C2(C)CC2)C(=O)N1C` (stereo partly shown) [Compound 1918], in data set [1], the Papp A→B at 60 min, 10 μM was determined as 0.112 ×10⁻⁶ cm/s; the Papp B→A at 60 min, 10 μM worked out at 42.6 ×10⁻⁶ cm/s; the efflux ratio at 60 min, 10 μM turned out to be 380.
With `CC(C)[C@@H]1NCCOc2cccc(F)c2C#CCNC(=O)[C@@H](Cc2ccccc2)NC(=O)[C@H](C(C)O)N(C)C1=O` (stereo partly shown) [Compound 1929], in data set [1], the apical-to-basolateral permeability (Papp A→B) at 60 min, 10 μM was found to be 0.171 ×10⁻⁶ cm/s; the Papp B→A at 60 min, 10 μM was 36.9 ×10⁻⁶ cm/s; the efflux ratio at 60 min, 10 μM amounted to 216. Further, in data set [3], the “effect on hERG channel function” value was “no significant effect”.

The values above are taken from patent publication US20110105389A1 (priority 2009, published 2011).
